Laboratory results as given in patent publication US11426371B2, “Compositions and methods for treating cancer” (University of Virginia Patent Foundation, priority 2017, dated 2022).
Read-outs that look alike come from different tables or passages of the source.

Key:
SKNO1 = experiment: Cell viability, panel of AML cell lines; type: cell-based; settings: Homo sapiens, SKNO-1, SKNO1 cells
Procedure: (§1) Representative human AML cell lines (FIG. 2A; upper and lower panels) HL60/VCR and (FIG. 2B; upper and lower panels) OCI-AML2 were treated with SACLAC for 24 and 48 hours. Viability was assessed by MTS assay at 24 and 48 hours and apoptosis was assessed by flow cytometry at 48 hours. Upper panels represent % viability and lower panels indicate % apoptosis.
(§2) Two representative human-derived AML cell lines, HL60/VCR and OCI-AML2, are shown. These studies have been expanded to a large panel of additional human AML cell lines (n=30, Table 1).

HL60/VCR = experiment: Cell viability, panel of AML cell lines; type: cell-based; settings: Homo sapiens, HL60/VCR cells (drug resistant variant)
Procedure: as §1, §2

SET2 = experiment: Cell viability, panel of AML cell lines; type: cell-based; settings: Homo sapiens, SET-2, SET2 cells
Procedure: as §1, §2

KGIa/ABTR = experiment: Cell viability, panel of AML cell lines; type: cell-based; settings: Homo sapiens, KGIa/ABTR cells
Procedure: as §1, §2

THP-1 = experiment: Cell viability, panel of AML cell lines; type: cell-based; settings: Homo sapiens, THP-1 cells
Procedure: as §1, §2

OCI-AML3 = experiment: Cell viability, panel of AML cell lines; type: cell-based; settings: Homo sapiens, OCI-AML-3, OCI-AML3 cells
Procedure: as §1, §2

ME-1 = experiment: Cell viability, panel of AML cell lines; type: cell-based; settings: Homo sapiens, ME-1 cells
Procedure: as §1, §2

OCI-AML2 = experiment: Cell viability, panel of AML cell lines; type: cell-based; settings: Homo sapiens, OCI-AML2 cells
Procedure: as §1, §2

HL60 = experiment: Cell viability, panel of AML cell lines; type: cell-based; settings: Homo sapiens, HL-60, HL60 cells
Procedure: as §1, §2

ML2 = experiment: Cell viability, panel of AML cell lines; type: cell-based; settings: Homo sapiens, ML-2, ML2 cells
Procedure: as §1, §2

MOLM-13 = experiment: Cell viability, panel of AML cell lines; type: cell-based; settings: Homo sapiens, MOLM-13 cells
Procedure: as §1, §2

NB4 = experiment: Cell viability, panel of AML cell lines; type: cell-based; settings: Homo sapiens, NB-4, NB4 cells
Procedure: as §1, §2

Kasumi-1 = experiment: Cell viability, panel of AML cell lines; type: cell-based; settings: Homo sapiens, Kasumi-1 cells
Procedure: as §1, §2

THF-1 = experiment: Cell viability, panel of AML cell lines; type: cell-based; settings: Homo sapiens, THF-1 cells
Procedure: as §1, §2

MM-6 = experiment: Cell viability, panel of AML cell lines; type: cell-based; settings: Homo sapiens, MM-6 cells
Procedure: as §1, §2

SKM1 = experiment: Cell viability, panel of AML cell lines; type: cell-based; settings: Homo sapiens, SKM-1, SKM1 cells
Procedure: as §1, §2

Kasumi-6 = experiment: Cell viability, panel of AML cell lines; type: cell-based; settings: Homo sapiens, Kasumi-6 cells
Procedure: as §1, §2

Kasumi-3 = experiment: Cell viability, panel of AML cell lines; type: cell-based; settings: Homo sapiens, Kasumi-3 cells
Procedure: as §1, §2

KG1a = experiment: Cell viability, panel of AML cell lines; type: cell-based; settings: Homo sapiens, KG-1a, KG1a cells
Procedure: as §1, §2

[1] = Maximum tolerated dose in vivo; settings: preliminary results (not shown)
Procedure: Preliminary results (not shown) indicate a maximum tolerated dose in vivo of at least about 50 mg/kg body weight. Pharmacokinetic studies are in progress to measure any accumulation of SACLAC in the blood following treatment. Initial studies are based on doses of 20 or 40 mg/kg body weight.

[2] = test system: HL60/VCR and OCI-AML2 AML cell lines; experiment: Apoptosis in AML cell lines by flow cytometry; type: cell-based, human; settings: 48 hours, dose-dependent
Procedure: as §1, §2

acid ceramidase (AC) [3] = molecular target: T1, acid ceramidase (AC) (Homo sapiens, UniProt Q13510); experiment: AC inhibition in lysates from cells overexpressing the enzyme; type: biochemical; parameters: expressed in transfected cells
T1 sequence (Q13510 143-395 limits assumed): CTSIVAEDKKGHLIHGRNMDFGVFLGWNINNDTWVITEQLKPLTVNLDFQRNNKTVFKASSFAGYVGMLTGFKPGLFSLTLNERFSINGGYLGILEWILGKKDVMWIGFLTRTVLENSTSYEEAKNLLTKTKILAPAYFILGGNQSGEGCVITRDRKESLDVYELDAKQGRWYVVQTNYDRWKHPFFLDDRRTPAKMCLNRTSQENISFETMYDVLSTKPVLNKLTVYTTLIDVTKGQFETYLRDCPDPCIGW
T1 sequence (Q13510 22-142 limits assumed): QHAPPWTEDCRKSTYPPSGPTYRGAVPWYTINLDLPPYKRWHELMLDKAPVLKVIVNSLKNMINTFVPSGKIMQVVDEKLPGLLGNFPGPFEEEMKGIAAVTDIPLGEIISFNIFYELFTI

acid ceramidase (AC) [4] = molecular target: T1, acid ceramidase (AC); experiment: LC/MS analysis of tryptic digests of AC incubated with SACLAC; type: binding; parameters: expressed in transfected cells; settings: peptide C,T,S,I,V,A,E,D,K

In the case of CCCCCCCCCCCCCCC[C@@H](O)[C@H](CO)NC(=O)CCl [SACLAC, 2-chloro-N-((2S,3R)-1,3-dihydroxyoctadecan-2-yl)acetamide], the EC50 (SKNO1; 24 h, read-out: EC50 24 h) is reported as 0.9 µM, the EC50 (SKNO1; 48 h, read-out: EC50 48 h) is reported as 0.8 µM and the EC50 (HL60/VCR; 24 h, read-out: EC50 24 h) is reported as 3.3 µM. For the same compound, the EC50 (HL60/VCR; 48 h, read-out: EC50 48 h) was 2.4 µM, the EC50 (SET2; 24 h, read-out: EC50 24 h) was 2.6 µM and the EC50 (SET2; 48 h, read-out: EC50 48 h) was 3.3 µM. The EC50 (KGIa/ABTR; 24 h, read-out: EC50 24 h) was 2.9 µM, the EC50 (KGIa/ABTR; 48 h, read-out: EC50 48 h) was 2.7 µM and the EC50 (THP-1; 24 h, read-out: EC50 24 h) was 2.6 µM. It also gave an EC50 (THP-1; 48 h, read-out: EC50 48 h) of 2.2 µM, an EC50 (OCI-AML3; 24 h, read-out: EC50 24 h) of 0.6 µM and an EC50 (OCI-AML3; 48 h, read-out: EC50 48 h) of 0.4 µM. It also gave an EC50 (ME-1; 24 h, read-out: EC50 24 h) of 2.1 µM, an EC50 (ME-1; 48 h, read-out: EC50 48 h) of 1.2 µM and an EC50 (OCI-AML2; 24 h, read-out: EC50 24 h) of 1.8 µM. It also gave an EC50 (OCI-AML2; 48 h, read-out: EC50 48 h) of 1.1 µM, an EC50 (HL60; 24 h, read-out: EC50 24 h) of 1.8 µM and an EC50 (HL60; 48 h, read-out: EC50 48 h) of 1.2 µM. The EC50 (ML2; 24 h, read-out: EC50 24 h) was 1.7 µM, the EC50 (ML2; 48 h, read-out: EC50 48 h) was 1.8 µM and the EC50 (MOLM-13; 24 h, read-out: EC50 24 h) was 1.1 µM. It also gave an EC50 (MOLM-13; 48 h, read-out: EC50 48 h) of 1.4 µM, an EC50 (NB4; 24 h, read-out: EC50 24 h) of 0.2 µM and an EC50 (NB4; 48 h, read-out: EC50 48 h) of 0.6 µM. The EC50 (Kasumi-1; 24 h, read-out: EC50 24 h) was 0.8 µM, the EC50 (Kasumi-1; 48 h, read-out: EC50 48 h) was 0.8 µM and the EC50 (THF-1; 24 h, read-out: EC50 24 h) was 6.7 µM. The EC50 (THF-1; 48 h, read-out: EC50 48 h) was 4.8 µM, the EC50 (MM-6; 24 h, read-out: EC50 24 h) was 7.8 µM and the EC50 (MM-6; 48 h, read-out: EC50 48 h) was 6 µM. The EC50 (SKM1; 24 h, read-out: EC50 24 h) was 1.6 µM, the EC50 (SKM1; 48 h, read-out: EC50 48 h) was 0.7 µM and the EC50 (Kasumi-6; 24 h, read-out: EC50 24 h) was 2.1 µM. For the same compound, the EC50 (Kasumi-6; 48 h, read-out: EC50 48 h) was 2.7 µM, the EC50 (Kasumi-3; 24 h, read-out: EC50 24 h) was 0.5 µM and the EC50 (Kasumi-3; 48 h, read-out: EC50 48 h) was 0.7 µM. For the same compound, the EC50 (KG1a; 24 h, read-out: EC50 24 h) was 5.6 µM, the EC50 (KG1a; 48 h, read-out: EC50 48 h) was 3.5 µM and the MTD [1] was ≥ 50 mg/kg. The apoptosis [2] was “induced apoptosis”, the IC50 (acid ceramidase (AC) [3]; irreversible binding to its binding site, read-out: IC50) was 0.0467 µM and the IC50 (acid ceramidase (AC) [3]; lysates from cells overexpressing the enzyme, read-out: IC50, AC inhibition) was 0.046 µM. The “covalent modification of AC peptide” value (acid ceramidase (AC) [4]) was “formation of the expected lipid modified peptide”.
